Experimental data from ChEMBL document CHEMBL1177829, “A novel organogermanium protected atopic dermatitis induced by oxazolone” (2010).
Active and inactive are the calls of the source. No cut-off for these calls is given here.

How the values were obtained:
Mus musculus [1] = assay: Antiinflammatory activity against oxazolone-induced atopic dermatitis in nude mouse assessed as decrease in transepidermal water loss at 0.01 % administered topically bid simultaneously with oxazolone qd for 10 days following 5 days post-oxazolone challenge relative to control; assay type: functional; design: scale not given: the % may be the effect or the level left
Mus musculus [2] = assay: Antiinflammatory activity against oxazolone-induced atopic dermatitis in nude mouse assessed as decrease in transepidermal water loss at 0.3 % administered topically bid simultaneously with oxazolone qd for 10 days following 5 days post-oxazolone challenge relative to control; assay type: functional, organism-based; design: scale not given: the % may be the effect or the level left
Mus musculus [3] = assay: Antiinflammatory activity against oxazolone-induced atopic dermatitis in nude mouse assessed as decrease in transepidermal water loss at 1.8 % administered topically bid simultaneously with oxazolone qd for 10 days following 5 days post-oxazolone challenge relative to control; assay type: functional, organism-based; design: scale not given: the % may be the effect or the level left
Mus musculus [4] = assay: Antiinflammatory activity against oxazolone-induced atopic dermatitis in nude mouse assessed as decrease in skin thickness at 0.3 to 1.8 % administered topically bid simultaneously with oxazolone qd for 10 days following 5 days post-oxazolone challenge relative to control; assay type: functional, organism-based
Mus musculus [5] = assay: Antiinflammatory activity against oxazolone-induced atopic dermatitis in nude mouse assessed as decrease in skin thickness at 0.01 % administered topically bid simultaneously with oxazolone qd for 10 days following 5 days post-oxazolone challenge relative to control; assay type: functional, organism-based
Mus musculus [6] = assay: Antiinflammatory activity against oxazolone-induced atopic dermatitis in nude mouse assessed as infiltration of lymphocytes in dermis at 1.8 % administered topically bid simultaneously with oxazolone qd for 10 days following 5 days post-oxazolone challenge relative to control; assay type: functional, organism-based
Mus musculus [7] = assay: Antiinflammatory activity against oxazolone-induced atopic dermatitis in nude mouse assessed as alleviation of parkeratotic scales at 1.8 % administered topically bid simultaneously with oxazolone qd for 10 days following 5 days post-oxazolone challenge relative to control; assay type: functional, organism-based
Mus musculus [8] = assay: Antiinflammatory activity against oxazolone-induced atopic dermatitis in nude mouse assessed as reduction in IgE level at 0.3 to 1.8 % administered topically bid simultaneously with oxazolone qd for 10 days following 5 days post-oxazolone challenge relative to control; assay type: functional, organism-based

| Molecule | Activity (Mus musculus [1]) [%] | Activity (Mus musculus [2]) [%] | Activity (Mus musculus [3]) [%] | Activity (Mus musculus [4]) | Activity (Mus musculus [5]) | Activity (Mus musculus [6]) | Activity (Mus musculus [7]) | Activity (Mus musculus [8]) |
| --- | --- | --- | --- | --- | --- | --- | --- | --- |
| C[C@H]1C[C@H]2[C@@H]3CCC4=CC(=O)C=C[C@]4(C)[C@@]3(F)[C@@H](O)C[C@]2(C)[C@@]1(O)C(=O)CO [BETAMETHASONE] | 57 | – | – | – | – | – | – | – |
| N-((2S)-2-(3,4-dihydroxy-5-oxo-2,5-dihydrofuran-2-yl)-2-hydroxyethyl)-3-(trimethylgermyl)propanamide | – | 6 | 39 | Active | Active | Active | Active | Active |
